Measurements taken from ChEMBL document CHEMBL1201862, “PubChem BioAssay data set” (2004).
Activity calls are given as the source filed them.

Columns and labels:
Protein Rev = Protein Rev (Human immunodeficiency virus type 1 group M subtype B (isolate HXB2)(HIV-1), UniProt P04618); assay: inhibitors of Rev binding to RRE RNA, dose response, biochemical, fluorescence polarization, HIV-1 (AID 434976); set-up: species or system Human immunodeficiency virus 1
[1] = molecular target: Female germline-specific tumor suppressor gld-1 (Caenorhabditis elegans, UniProt Q17339); assay: inhibitors of GLD-1 binding to TGE RNA, dose response, biochemical, fluorescence polarization, C. elegans (AID 2802);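 note: fluorescence polarization of labeled TGE RNA bound by purified gld-1 protein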
Chain of Female germline-specific tumor suppressor gld-1 (Q17339 whole entry): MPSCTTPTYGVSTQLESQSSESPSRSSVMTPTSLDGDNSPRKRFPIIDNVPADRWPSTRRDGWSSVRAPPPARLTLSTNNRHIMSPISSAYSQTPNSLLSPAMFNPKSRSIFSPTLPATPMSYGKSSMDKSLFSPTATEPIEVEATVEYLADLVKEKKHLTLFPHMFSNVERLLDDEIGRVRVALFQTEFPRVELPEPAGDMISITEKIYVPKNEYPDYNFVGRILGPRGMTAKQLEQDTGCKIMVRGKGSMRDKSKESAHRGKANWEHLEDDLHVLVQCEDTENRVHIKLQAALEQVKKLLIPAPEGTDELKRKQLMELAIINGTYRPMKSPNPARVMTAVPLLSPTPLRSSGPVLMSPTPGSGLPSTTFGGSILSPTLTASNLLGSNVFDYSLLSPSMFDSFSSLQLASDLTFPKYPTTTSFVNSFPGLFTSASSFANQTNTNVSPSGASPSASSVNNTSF

Vero = Vero cell cytotoxicity, cytotoxicity control for flavivirus capping enzyme inhibitors (AID 588742); assay type: functional; details: Chlorocebus sabaeus
Genome polyprotein = Genome polyprotein (dengue virus type 2, UniProt P29990); assay: Dengue-2 NS5 methyltransferase inhibitors, primary screen, biochemical, confirmation dose response (AID 588689); assay type: functional
Chain of Genome polyprotein (P29990 2492-3391 limits assumed): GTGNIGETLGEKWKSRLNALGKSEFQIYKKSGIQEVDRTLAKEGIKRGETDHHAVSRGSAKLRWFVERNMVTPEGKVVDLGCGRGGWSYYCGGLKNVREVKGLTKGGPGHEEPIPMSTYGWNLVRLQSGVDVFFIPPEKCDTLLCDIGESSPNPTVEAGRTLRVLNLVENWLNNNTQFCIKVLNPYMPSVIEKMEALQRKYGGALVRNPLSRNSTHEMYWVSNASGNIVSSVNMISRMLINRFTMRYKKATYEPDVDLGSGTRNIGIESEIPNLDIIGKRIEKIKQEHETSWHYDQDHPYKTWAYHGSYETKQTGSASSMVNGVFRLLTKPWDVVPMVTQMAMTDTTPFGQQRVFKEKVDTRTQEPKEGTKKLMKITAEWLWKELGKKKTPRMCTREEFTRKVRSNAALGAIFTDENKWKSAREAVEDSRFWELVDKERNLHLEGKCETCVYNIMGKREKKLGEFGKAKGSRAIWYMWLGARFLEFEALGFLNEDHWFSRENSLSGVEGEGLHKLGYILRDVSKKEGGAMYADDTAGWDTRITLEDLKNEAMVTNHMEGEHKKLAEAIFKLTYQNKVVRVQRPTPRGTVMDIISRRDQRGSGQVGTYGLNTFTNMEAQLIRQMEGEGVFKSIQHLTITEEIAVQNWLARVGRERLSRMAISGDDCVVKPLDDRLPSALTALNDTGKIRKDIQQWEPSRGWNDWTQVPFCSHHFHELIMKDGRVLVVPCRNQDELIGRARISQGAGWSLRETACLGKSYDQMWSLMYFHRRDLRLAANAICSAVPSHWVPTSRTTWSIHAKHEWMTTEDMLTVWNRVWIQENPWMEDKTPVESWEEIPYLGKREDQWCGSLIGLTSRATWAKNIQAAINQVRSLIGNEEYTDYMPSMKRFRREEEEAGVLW

[2] = inhibition of K1F phage lysis, E. coli UTI89, bacterial capsule biogenesis inhibitors, alamar blue (AID 488966); assay type: functional
cells = assay type: functional
[3] = inhibitors of firefly luciferase expression or activity, dose response, H4 neuroglioma cells, luminescence (AID 1990); assay type: functional, cell-based
[4] = Luminescence Cell-Based Dose Response HTS to Identify Inhibitors of 5'UTR Stem-Loop Driven Prion Protein mRNA Translation in H4 Neuroglioblastoma Cells. [Related pubchem assays: 1827 (Project Summary), 1813 (Primary HTS)]; assay type: functional
[5] = inhibitors of SNCA 5'UTR-driven reporter translation, confirmation, H4 neuroglioma cells, luminescence (AID 1988); assay type: functional, cell-based
[6] = cytotoxicity in HEK-293T cells, dose response, cytotoxicity control for BCR NF-kB inhibitor project, luminescence, B-cell screen hits (AID 489021); assay type: functional, cell-based;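 note: HEK-293T cells carrying an NF-kB luciferase reporter; cells exposed to compound for about 14 hours before viability readout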
[7] = molecular target: Scavenger receptor class B member 1 (Mus musculus, UniProt Q61009); assay: inhibitors of SR-BI mediated HDL lipid uptake, dose response, ldlA[mSR-BI] cells, fluorescence, cherry pick (AID 493194); assay type: functional, cell-based;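 note: cellular uptake of fluorescent DiI-labeled HDL measured as cell fluorescence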
Chain of Scavenger receptor class B member 1 (Q61009 whole entry): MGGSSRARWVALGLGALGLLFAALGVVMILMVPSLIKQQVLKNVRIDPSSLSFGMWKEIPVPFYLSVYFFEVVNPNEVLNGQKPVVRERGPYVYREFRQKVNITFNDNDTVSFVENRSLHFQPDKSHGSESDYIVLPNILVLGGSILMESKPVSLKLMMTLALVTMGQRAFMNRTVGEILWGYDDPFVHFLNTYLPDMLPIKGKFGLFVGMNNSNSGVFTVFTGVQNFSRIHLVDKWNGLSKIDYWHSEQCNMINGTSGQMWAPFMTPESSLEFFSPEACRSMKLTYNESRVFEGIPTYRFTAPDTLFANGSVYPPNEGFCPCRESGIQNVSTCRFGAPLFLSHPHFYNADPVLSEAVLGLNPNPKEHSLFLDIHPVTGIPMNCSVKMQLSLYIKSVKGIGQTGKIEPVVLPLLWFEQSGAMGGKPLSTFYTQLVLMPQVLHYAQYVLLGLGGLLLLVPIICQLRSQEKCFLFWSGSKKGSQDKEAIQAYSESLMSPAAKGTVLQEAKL

[8] = molecular target: Glucose-6-phosphate 1-dehydrogenase (Homo sapiens, UniProt P11413); assay: human G6PD enzyme inhibitors, dose response, selectivity assay for P. falciparum G6PD inhibitor project, biochemical, fluorescence (AID 504792); assay type: functional
Chain of Glucose-6-phosphate 1-dehydrogenase (P11413 whole entry): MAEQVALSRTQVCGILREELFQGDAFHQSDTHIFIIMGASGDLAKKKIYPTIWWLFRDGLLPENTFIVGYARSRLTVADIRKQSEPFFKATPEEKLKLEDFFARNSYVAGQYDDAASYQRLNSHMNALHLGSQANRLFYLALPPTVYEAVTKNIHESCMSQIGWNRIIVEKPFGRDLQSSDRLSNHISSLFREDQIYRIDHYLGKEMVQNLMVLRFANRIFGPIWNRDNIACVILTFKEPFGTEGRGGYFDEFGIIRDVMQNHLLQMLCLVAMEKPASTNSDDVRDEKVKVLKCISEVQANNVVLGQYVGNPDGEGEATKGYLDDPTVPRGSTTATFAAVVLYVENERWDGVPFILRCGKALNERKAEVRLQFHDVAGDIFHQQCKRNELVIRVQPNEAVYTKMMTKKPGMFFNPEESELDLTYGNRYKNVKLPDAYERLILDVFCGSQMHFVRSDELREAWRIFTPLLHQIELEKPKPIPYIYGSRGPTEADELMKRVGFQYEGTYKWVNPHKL

[9] = inhibition of ADP-Glo detection reagents, dose response, artefact control for CDK5 inhibitor project, biochemical, luminescence, cherry-picked samples, set 2 (AID 504546); assay type: functional
[10] = molecular target: Cyclin-dependent kinase 5/CDK5 activator 1 (Homo sapiens, UniProt Q00535); assay: CDK5/p35 kinase inhibitors, dose response, biochemical, cherry-picked samples, set 2 (AID 504545)
Nonstructural protein 1 = Nonstructural protein 1 (Influenza A virus, UniProt Q194T2); assay type: functional, Influenza A virus (A/California/07/2009(H1N1))
Chain of Nonstructural protein 1 (Q194T2 whole entry): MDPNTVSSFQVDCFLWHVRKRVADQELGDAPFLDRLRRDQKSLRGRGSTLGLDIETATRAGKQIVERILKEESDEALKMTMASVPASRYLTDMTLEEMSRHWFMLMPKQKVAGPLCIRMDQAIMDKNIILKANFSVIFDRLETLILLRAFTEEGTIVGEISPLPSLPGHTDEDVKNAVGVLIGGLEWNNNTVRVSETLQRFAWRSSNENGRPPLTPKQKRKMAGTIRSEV

[11] = molecular target: Heat shock protein HSP 90-alpha (Homo sapiens, UniProt P07900); assay type: functional, organism-based
[12] = Fluorescence-based cell-based high throughput dose response assay for inhibitors of the interaction of nucleotide-binding oligomerization domain containing 2 (NOD2) and the receptor-interacting serine-threonine kinase 2 (RIPK2).; assay type: functional; details: Homo sapiens
Beta Lactamase = Beta Lactamase (Pseudomonas aeruginosa, UniProt Q932Y6); assay: beta-lactamase reporter inhibitor potency, dose response, artefact control for NOD2-RIPK2 interaction inhibitor project, BLA reporter cells, FRET fluorescence (AID 651552); assay type: functional, cell-based
Chain of Beta Lactamase (Q932Y6 whole entry): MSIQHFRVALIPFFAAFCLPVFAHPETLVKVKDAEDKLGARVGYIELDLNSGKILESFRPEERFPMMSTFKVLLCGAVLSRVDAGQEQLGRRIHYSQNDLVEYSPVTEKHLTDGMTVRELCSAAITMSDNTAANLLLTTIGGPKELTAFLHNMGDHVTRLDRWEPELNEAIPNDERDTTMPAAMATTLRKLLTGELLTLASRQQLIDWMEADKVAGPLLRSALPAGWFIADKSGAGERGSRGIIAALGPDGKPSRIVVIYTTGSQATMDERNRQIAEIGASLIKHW

[13] = HeLa cell cytotoxicity, dose response, cytotoxicity control for MgcRacGAP inhibitor project (AID 624300); assay type: functional
[14] = molecular target: T1, Rac GTPase-activating protein 1 (Homo sapiens, UniProt Q9H0H5); assay: MgcRacGAP GTPase-activating activity inhibitors, confirmation, biochemical, ADP Hunter fluorescence, primary and confirmatory (AID 624330); assay type: functional
T1 sequence (Q9H0H5 whole entry): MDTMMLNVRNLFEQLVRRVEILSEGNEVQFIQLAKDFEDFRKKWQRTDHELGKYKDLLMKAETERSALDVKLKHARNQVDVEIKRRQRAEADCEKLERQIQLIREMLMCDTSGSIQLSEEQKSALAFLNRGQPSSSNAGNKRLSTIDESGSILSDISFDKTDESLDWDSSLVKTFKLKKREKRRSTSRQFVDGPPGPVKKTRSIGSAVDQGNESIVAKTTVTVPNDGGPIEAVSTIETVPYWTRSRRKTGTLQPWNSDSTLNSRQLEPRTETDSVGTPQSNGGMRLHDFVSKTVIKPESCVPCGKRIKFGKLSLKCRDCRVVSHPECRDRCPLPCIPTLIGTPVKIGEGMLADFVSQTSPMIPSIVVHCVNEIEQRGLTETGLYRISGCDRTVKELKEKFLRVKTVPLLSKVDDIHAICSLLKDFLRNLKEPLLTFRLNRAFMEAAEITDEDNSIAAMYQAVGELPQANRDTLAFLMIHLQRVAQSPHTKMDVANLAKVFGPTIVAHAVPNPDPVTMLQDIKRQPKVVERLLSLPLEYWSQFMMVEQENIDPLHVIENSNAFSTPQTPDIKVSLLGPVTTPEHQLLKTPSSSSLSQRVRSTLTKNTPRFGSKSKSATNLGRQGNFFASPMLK

[15] = molecular target: Matrix metalloproteinase-14 (Homo sapiens, UniProt P50281); assay: Dose Response confirmation of uHTS hits for a small molecule inhibitors of MT1-MMP activation in a fluorescence assay set 1.; assay type: functional
[16] = molecular target: T2, Histone-lysine N-methyltransferase NSD2 (Homo sapiens, UniProt O96028); assay type: biochemical
T2 sequence (O96028 whole entry): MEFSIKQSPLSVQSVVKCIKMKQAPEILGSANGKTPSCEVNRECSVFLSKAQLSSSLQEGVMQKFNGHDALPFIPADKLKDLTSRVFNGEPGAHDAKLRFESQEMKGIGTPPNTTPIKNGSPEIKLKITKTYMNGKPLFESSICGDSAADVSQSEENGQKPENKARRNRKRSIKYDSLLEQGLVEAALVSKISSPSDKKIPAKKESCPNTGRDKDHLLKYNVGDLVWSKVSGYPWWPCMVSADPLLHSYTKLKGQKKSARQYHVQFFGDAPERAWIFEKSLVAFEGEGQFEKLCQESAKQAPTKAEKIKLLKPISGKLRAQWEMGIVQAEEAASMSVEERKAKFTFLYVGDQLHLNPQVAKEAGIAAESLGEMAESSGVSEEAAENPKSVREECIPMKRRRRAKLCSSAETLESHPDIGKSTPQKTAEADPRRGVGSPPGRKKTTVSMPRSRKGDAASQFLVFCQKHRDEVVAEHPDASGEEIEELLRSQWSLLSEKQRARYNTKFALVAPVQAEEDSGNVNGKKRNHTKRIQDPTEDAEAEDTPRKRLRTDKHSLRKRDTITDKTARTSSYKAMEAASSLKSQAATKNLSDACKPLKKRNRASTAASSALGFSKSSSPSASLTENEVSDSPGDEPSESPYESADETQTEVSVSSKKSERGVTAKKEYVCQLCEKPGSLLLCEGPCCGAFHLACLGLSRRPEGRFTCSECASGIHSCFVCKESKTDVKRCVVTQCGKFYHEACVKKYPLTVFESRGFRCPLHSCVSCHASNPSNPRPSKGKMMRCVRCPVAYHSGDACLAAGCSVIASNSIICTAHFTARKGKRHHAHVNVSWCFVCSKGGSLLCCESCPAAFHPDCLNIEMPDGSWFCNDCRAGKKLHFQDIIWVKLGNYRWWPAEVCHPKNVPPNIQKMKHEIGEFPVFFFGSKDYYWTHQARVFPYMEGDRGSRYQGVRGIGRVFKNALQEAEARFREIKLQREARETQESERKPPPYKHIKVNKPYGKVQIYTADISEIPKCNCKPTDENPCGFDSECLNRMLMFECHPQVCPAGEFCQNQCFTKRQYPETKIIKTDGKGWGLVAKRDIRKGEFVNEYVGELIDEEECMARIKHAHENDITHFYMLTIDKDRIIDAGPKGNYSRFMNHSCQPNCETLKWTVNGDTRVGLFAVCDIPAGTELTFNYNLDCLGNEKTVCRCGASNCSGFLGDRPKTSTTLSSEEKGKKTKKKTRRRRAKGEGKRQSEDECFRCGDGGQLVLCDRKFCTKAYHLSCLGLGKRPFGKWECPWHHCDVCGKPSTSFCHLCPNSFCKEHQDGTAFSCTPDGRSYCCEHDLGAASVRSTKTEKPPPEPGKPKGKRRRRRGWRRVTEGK

[17] = human group III sPLA2 inhibitors, dose response, biochemical, QFRET, IC50 (AID 743457);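 note: green fluorescence rise as the enzyme cleaves BODIPY PC-A2 in liposomes; potency for inhibition of the enzyme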
Wee1-like protein kinase = Wee1-like protein kinase (Homo sapiens, UniProt P30291); assay: G2/M cell cycle arrest in HeLa, late-stage follow-up, mechanism study for Wee1 degradation inhibitor project, FACS, panel member Wee1 Degradation (AID 2088)
Chain of Wee1-like protein kinase (P30291 whole entry): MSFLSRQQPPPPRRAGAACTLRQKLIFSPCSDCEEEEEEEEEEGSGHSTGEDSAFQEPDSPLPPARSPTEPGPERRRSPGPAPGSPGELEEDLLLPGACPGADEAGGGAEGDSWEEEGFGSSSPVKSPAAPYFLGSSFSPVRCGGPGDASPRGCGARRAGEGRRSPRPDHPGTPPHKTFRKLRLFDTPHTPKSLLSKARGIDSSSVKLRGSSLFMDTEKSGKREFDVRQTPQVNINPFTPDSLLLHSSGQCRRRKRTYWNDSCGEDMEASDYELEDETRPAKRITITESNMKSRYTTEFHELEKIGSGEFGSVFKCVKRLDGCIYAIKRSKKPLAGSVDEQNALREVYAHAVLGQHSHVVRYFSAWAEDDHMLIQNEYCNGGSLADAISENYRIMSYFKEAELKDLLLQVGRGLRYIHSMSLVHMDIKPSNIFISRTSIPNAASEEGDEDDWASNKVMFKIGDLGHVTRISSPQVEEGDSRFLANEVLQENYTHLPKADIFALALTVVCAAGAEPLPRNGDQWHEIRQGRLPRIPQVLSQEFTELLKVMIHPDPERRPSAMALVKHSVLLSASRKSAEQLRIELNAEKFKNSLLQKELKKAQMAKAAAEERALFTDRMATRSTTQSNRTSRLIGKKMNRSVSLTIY

[18] = molecular target: G2/mitotic-specific cyclin-B1 (Homo sapiens, UniProt P14635); assay: G2/M cell cycle arrest in HeLa, late-stage follow-up, mechanism study for Wee1 degradation inhibitor project, FACS, panel member Cyclin B Degradation (AID 2088)
[19] = cytotoxicity in BJeHLT fibroblasts, dose response, counter-screen for Ras selective lethality project, BJeHLT cells, dry powder (AID 493052); assay type: functional, cell-based; details: Homo sapiens
[20] = viability loss in HRASV12 DRD fibroblasts, dose response, cell-based, DRD BJ fibroblasts, dry powder (AID 493049); assay type: functional
[21] = viability loss in BJeLR (HRASV12) cells, primary screen, Ras selective lethality project, cell-based, Alamar Blue, dry powder (AID 493045); assay type: functional
[22] = cytotoxicity in BJeH fibroblasts, dose response, counter-screen for Ras selective lethality project, BJeH cells, dry powder (AID 493054); assay type: functional, cell-based
[23] = molecular target: T3, Kappa-type opioid receptor (Homo sapiens, UniProt P41145); assay type: functional
T3 sequence (P41145 whole entry): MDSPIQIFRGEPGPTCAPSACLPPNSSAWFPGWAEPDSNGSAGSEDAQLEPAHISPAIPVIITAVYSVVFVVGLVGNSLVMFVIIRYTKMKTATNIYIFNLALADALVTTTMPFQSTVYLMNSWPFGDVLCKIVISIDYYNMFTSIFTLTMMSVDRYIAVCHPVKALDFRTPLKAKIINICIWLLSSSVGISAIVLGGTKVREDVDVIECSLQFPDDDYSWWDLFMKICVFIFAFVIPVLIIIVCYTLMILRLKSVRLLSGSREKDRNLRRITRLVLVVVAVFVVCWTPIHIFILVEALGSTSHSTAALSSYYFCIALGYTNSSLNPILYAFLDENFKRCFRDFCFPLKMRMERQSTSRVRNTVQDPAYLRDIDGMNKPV

Beta-galactosidase [24] = molecular target: T4, Beta-galactosidase (Escherichia coli, UniProt Q8VNN2); assay type: functional
T4 sequence (Q8VNN2 whole entry): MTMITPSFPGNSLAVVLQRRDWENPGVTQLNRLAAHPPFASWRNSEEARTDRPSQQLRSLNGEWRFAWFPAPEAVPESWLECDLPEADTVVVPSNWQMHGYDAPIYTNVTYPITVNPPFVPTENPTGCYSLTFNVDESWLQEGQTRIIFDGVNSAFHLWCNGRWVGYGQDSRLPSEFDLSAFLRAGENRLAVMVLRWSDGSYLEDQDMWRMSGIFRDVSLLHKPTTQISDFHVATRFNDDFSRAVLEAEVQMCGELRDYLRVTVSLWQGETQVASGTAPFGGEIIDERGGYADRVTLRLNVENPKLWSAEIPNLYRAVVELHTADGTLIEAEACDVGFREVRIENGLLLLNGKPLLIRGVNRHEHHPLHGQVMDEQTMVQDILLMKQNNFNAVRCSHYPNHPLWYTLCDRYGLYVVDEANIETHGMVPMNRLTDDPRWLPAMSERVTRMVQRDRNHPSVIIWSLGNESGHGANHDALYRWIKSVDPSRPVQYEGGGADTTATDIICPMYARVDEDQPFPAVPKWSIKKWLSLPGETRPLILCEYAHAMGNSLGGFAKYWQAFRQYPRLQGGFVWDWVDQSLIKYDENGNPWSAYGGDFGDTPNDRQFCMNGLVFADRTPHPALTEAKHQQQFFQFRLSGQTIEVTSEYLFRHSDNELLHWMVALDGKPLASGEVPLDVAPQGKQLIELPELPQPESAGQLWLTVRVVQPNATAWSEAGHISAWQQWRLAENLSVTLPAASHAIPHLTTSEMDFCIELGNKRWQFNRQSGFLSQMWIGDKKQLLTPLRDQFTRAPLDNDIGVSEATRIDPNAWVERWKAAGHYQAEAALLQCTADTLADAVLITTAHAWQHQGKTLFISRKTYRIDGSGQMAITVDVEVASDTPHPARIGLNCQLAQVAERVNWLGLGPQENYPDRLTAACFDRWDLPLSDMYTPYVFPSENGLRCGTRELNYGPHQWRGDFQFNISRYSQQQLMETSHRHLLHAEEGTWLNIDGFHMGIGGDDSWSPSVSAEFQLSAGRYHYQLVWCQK

[25] = molecular target: T3, Kappa-type opioid receptor; assay type: functional; remark: listed apart in the source
Beta-galactosidase [26] = molecular target: T4, Beta-galactosidase; assay: beta-galactosidase enzyme inhibitors and activators, dose response, artefact control for CCR6 antagonist project, biochemical, E. coli enzyme, set 3 (AID 504712); assay type: functional
[27] = molecular target: T5, Corticotropin-releasing factor receptor 2/Corticotropin-releasing factor-binding protein (Homo sapiens, UniProt P24387+Q13324); assay: activators of CRF receptor 2 with binding protein – uHTS hits, confirmation (AID 602473); assay type: functional; details: read-out: EC50_Mean
T5 sequence (Q13324 whole entry): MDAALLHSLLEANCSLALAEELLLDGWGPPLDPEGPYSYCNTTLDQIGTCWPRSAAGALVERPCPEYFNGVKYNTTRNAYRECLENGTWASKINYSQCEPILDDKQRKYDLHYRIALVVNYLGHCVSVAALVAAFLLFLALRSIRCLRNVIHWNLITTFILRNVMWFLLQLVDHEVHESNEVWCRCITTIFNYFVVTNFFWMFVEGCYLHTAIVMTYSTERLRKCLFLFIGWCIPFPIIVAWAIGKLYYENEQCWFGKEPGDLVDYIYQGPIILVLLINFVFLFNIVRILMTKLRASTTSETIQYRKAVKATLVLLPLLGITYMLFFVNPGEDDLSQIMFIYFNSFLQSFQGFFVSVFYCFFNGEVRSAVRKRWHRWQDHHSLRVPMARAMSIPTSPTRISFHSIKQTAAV
T5 sequence (P24387 whole entry): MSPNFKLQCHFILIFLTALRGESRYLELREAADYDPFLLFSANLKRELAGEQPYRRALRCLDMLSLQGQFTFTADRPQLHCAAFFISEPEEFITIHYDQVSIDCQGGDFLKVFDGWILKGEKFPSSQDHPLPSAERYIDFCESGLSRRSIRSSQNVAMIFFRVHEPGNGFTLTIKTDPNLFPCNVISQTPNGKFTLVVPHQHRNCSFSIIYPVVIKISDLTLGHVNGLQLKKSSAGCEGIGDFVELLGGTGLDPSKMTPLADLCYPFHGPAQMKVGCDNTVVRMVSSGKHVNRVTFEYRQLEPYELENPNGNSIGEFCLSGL

## CCOc1ccc2nc(N3CCCN(C(=O)Nc4ccccc4C)CC3)c(C#N)cc2c1
Protein Rev
  IC50: 20.3 µM (not active)
[1]
  IC50: > 59.7 µM (inactive)
Vero
  CC50: > 40 µM (active)
Genome polyprotein
  IC50: 38.7 µM (active)

## CCc1ccc(NC(=O)C(=O)NNC(=O)c2cccc(OC)c2)cc1
[2]
  IC50: > 75 µM (active)
cells
  IC50: 10.5 µM (active)

## CCCCOc1ccc(NC(=O)C(=O)NCCCn2ccnc2)cc1
[3]
  EC50: 13.9 µM (active)
[4]
  EC50: 18.5 µM (active)
[5]
  EC50: 10.6 µM (active)
[6]
  IC50: > 80 µM (inactive)

## CCOc1ccc(NS(=O)(=O)c2ccc(C(=O)NNC(=O)c3ccccc3O)cc2)cc1
[7]
  AC50: 11.1 µM (active)

## CCN(CC)c1ccc(C(=C2C=CC(=[N+](CC)CC)C=C2)c2ccc(N(CC)CC)cc2)cc1
[8]
  IC50: 44.7 µM (inactive)
[9]
  AC50: 31.9 µM (active)
[10]
  AC50: 12.3 µM (active)
Nonstructural protein 1
  IC50: 0.774 µM (active)
[11]
  AC50: 0.57 µM (active)
[12]
  IC50: 10.9 µM (inactive)
Beta Lactamase
  IC50: 10.8 µM (inactive)
[13]
  CC50: 4.15 µM (active)
[14]
  IC50: 20.6 µM (active)
[15]
  IC50: > 80 µM (inactive)
[16]
  AC50: 1.01 µM (active)
[17]
  IC50: > 40.6 µM (inactive)

## Cc1cc(O)nc(-n2nc(C)cc2NC(=O)Cc2ccc(F)cc2)n1
Wee1-like protein kinase
  EC50: > 49.7 µM (inactive)
[18]
  EC50: > 49.7 µM (inactive)

## COc1ccc(N(CC(=O)NCCc2ccccc2)C(=O)CCl)cc1Cl
[19]
  AC50: 0.531 µM (active)
[20]
  AC50: 0.223 µM (active)
[21]
  AC50: 0.231 µM (active)
[22]
  AC50: 0.793 µM (active)

## Cc1ccc(-n2[nH]c(C)c(/C=N/N3C(=O)c4cccc5cccc(c45)C3=O)c2=O)cc1
[23]
  IC50: 6.32 µM (active)
Beta-galactosidase [24]
  EC50: > 31.5 µM (inactive)
[25]
  IC50: > 32 µM
Beta-galactosidase [26]
  IC50: > 66.6 µM (inactive)
[27]
  EC50: 3.95 µM (active)
